Laboratory results taken from patent US8110681B2, “Compounds for the treatment of spinal muscular atrophy and other uses” (The United States of America as represented by the …, priority 2006, dated 2012).
Like-named read-outs stand apart in the source and are kept apart here.

Test system: SMN2-linked luciferase-reporter gene construct
Assay: SMN splice reporter assay (SMN2-linked luciferase reporter, Example 10)
Assay type: cell-based
Description: Cervical carcinoma cell lines were transformed with a SMN2-linked luciferase-reporter gene construct. The reporter is designed to detect shifts in the alternative splicing of SMN2 sequences. In particular, the reporter is constructed as a fusion of the alternatively spliced sequences of the SMN2 gene and the luciferase gene. Luciferase sequences are in the correct translational reading frame only when the SMN2 sequences are spliced according to the normal SMN1 mechanism (e.g., splicing to include exon 7), which allows for translation of the stable SMN protein. Compounds were tested in the assay by administering the compound to the cell line and detecting an increase in the luciferase activity. The assay is described in greater detail in Zhang et al., Gene Ther., 8, 1532-8 (2001). Compounds were administered as described in Lunn et al, Chem. & Biol, 11, 1489-1493 (2004).
The results are reported as a fold-increase over a baseline reading of transformed cells without any test compound.

[1] = maximum fold increase of reporter signal, average, read-out: SMN Splice Reporter Assay (Example 10) Avg MaxFold Increase
[2] = SMN2-linked luciferase reporter, average

SMILES | maximal fold induction [1] | other results
CC(C(=O)O)c1ccc(N2Cc3ccc(NC(=O)c4ccccc4)cc3C2=O)cc1 (centres unmarked) [ALB-111986] | 1.06 | –
CC(C)C(=O)Nc1ccc2c(c1)C(=O)N(c1ccc(C(C)C(=O)OC(C)(C)C)cc1)C2 (centres unmarked) [ALB-111989] | 1.06 | –
CC(C(=O)OC(C)(C)C)c1ccc(N2Cc3cc(-c4cncnc4)ccc3C2=O)cc1 (centres unmarked) [ALB-111991] | 1.09 | –
CC(C(=O)OC(C)(C)C)c1ccc(N2Cc3cc(-c4cccs4)ccc3C2=O)cc1 (centres unmarked) [ALB-111992] | 1.01 | –
CC(C(=O)O)c1ccc(N2Cc3cc(-c4ccccc4)ccc3C2=O)cc1 (centres unmarked) [ALB-111993] | 1.54 | EC50 [2]: 2.95 µM
CC(C(=O)O)c1ccc(N2Cc3cc(-c4cncnc4)ccc3C2=O)cc1 (centres unmarked) [ALB-111994] | 1.38 | EC50 [2]: 4.18 µM
CC(C(=O)O)c1ccc(N2Cc3cccc([N+](=O)[O-])c3C2=O)cc1 (centres unmarked) [ALB-111995] | 1.25 | EC50 [2]: 12 µM
CC(C(=O)O)c1ccc(N2Cc3c(N)cccc3C2=O)cc1 (centres unmarked) [ALB-111996a] | 1.11 | –
CC(C(=O)OC(C)(C)C)c1ccc(N2Cc3ccc(NS(C)(=O)=O)cc3C2=O)cc1 (centres unmarked) [ALB-111997] | – | EC50 [2]: 0.175 µM; maximal fold induction (read-out: SMN Splice Reporter Assay (Example 10) Avg MaxFold Increase, maximum fold increase of reporter signal, average, heading: SMN Splice Reporter Assay Avg MaxFold Increase): 1.01
CC(C(=O)OC(C)(C)C)c1ccc(N2Cc3ccccc3C2=O)c(Br)c1 (centres unmarked) [ALB-111998] | 1.04 | –
CC(C(=O)O)c1ccc(N2Cc3ccccc3C2=O)cc1-c1ccc(Cl)c(Cl)c1 (centres unmarked) [ALB-111999] | 1.05 | –
Cc1ccc(-c2cc(N3Cc4ccccc4C3=O)ccc2C(C)C(=O)OC(C)(C)C)cc1 (centres unmarked) [ALB-112000] | 1.06 | –
COc1ccc(-c2cc(N3Cc4ccccc4C3=O)ccc2C(C)C(=O)OC(C)(C)C)cc1 (centres unmarked) [ALB-112001] | 1.02 | –
COc1ccc(-c2cc(N3Cc4ccccc4C3=O)ccc2C(C)C(=O)O)cc1 (centres unmarked) [ALB-112002] | 1.08 | –
Cc1ccc(-c2cc(N3Cc4ccccc4C3=O)ccc2C(C)C(=O)O)cc1 (centres unmarked) [ALB-112003] | 1.09 | EC50 [2]: 2.06 µM
CC(C(=O)O)c1ccc(N2Cc3ccccc3C2=O)c(Br)c1 (centres unmarked) [ALB-112004] | 1.08 | EC50 [2]: 1.25 µM
CC(C(=O)OC(C)(C)C)c1ccc(N2Cc3cccc(N)c3C2=O)cc1 (centres unmarked) [ALB-112061] | 1.27 | EC50 [2]: 3.74 µM
CC(C(=O)O)c1ccc(N2Cc3cccc(N)c3C2=O)cc1 (centres unmarked) [ALB-112062a] | 1.41 | EC50 [2]: 0.329 µM
CC(C(=O)O)c1ccc(N2Cc3cc(-c4cccs4)ccc3C2=O)cc1 (centres unmarked) [ALB-112063] | 1.2 | EC50 [2]: 0.909 µM
CC(C(=O)OC(C)(C)C)c1ccc(N2Cc3c(Br)cccc3C2=O)cc1 (centres unmarked) [ALB-112064] | 1.04 | –
CC(C(=O)OC(C)(C)C)c1ccc(N2Cc3cccc(Br)c3C2=O)cc1 (centres unmarked) [ALB-112065] | 1.22 | EC50 [2]: 1.34 µM
CC(C(=O)O)c1ccc(N2Cc3c(Br)cccc3C2=O)cc1 (centres unmarked) [ALB-112066] | 1.12 | EC50 [2]: 21.8 µM
CC(C(=O)O)c1ccc(N2Cc3cccc(Br)c3C2=O)cc1 (centres unmarked) [ALB-112067] | 1.36 | EC50 [2]: 9.71 µM
CC(C(=O)OC(C)(C)C)c1ccc(N2Cc3ccc(NS(=O)(=O)c4ccc(Cl)cc4)cc3C2=O)cc1 (centres unmarked) [ALB-112070] | 1.11 | –

SMILES | maximal fold induction [1] | other results
CC(C(=O)O)c1ccc(N2Cc3ccc(NS(C)(=O)=O)cc3C2=O)cc1 (centres unmarked) [ALB-112071] | 1.07 | –
CC(C(=O)OC(C)(C)C)c1ccc(N2Cc3ccc(NS(=O)(=O)c4ccccc4)cc3C2=O)cc1 (centres unmarked) [ALB-112072] | – | maximal fold induction (SMN2-linked luciferase reporter, average maximum fold increase, read-out: SMN Splice Reporter Assay (Example 10) Avg MaxFold Increase): 1.07
CCNC(=O)C(C)c1ccc(N2Cc3ccccc3C2=O)cc1 (centres unmarked) [ALB-112073] | 1.18 | –
CC(C(=O)Nc1ccccc1)c1ccc(N2Cc3ccccc3C2=O)cc1 (centres unmarked) [ALB-112075] | 1.25 | EC50 [2]: 0.578 µM
CC(C)NC(=O)C(C)c1ccc(N2Cc3ccccc3C2=O)cc1 (centres unmarked) [ALB-112076] | 1.12 | EC50 [2]: 1.37 µM
CC(C(=O)N1CCOCC1)c1ccc(N2Cc3ccccc3C2=O)cc1 (centres unmarked) [ALB-112077] | 1.09 | –
CC(C(=O)N1CCCCC1)c1ccc(N2Cc3ccccc3C2=O)cc1 (centres unmarked) [ALB-112078] | 1.15 | –
CNC(=O)C(C)c1ccc(N2Cc3ccccc3C2=O)cc1 (centres unmarked) [ALB-112079] | 1.14 | –
CC(C(=O)OC(C)(C)C)c1ccc(N2Cc3ccccc3C2=O)c(-c2ccc(Cl)c(Cl)c2)c1 (centres unmarked) [ALB-112080] | 1.03 | –
Cc1ccc(-c2cc(C(C)C(=O)OC(C)(C)C)ccc2N2Cc3ccccc3C2=O)cc1 (centres unmarked) [ALB-112081] | 1.03 | –
COc1ccc(-c2cc(C(C)C(=O)OC(C)(C)C)ccc2N2Cc3ccccc3C2=O)cc1 (centres unmarked) [ALB-112082] | 1.12 | –
CCCc1cc(N2Cc3ccccc3C2=O)ccc1C(C)C(=O)O (centres unmarked) [ALB-112083] | 1.09 | –
CC(C(=O)O)c1ccc(N2Cc3ccccc3C2=O)cc1-c1cccs1 (centres unmarked) [ALB-112084] | 1.11 | –
Cc1ccc(-c2cc(C(C)C(=O)O)ccc2N2Cc3ccccc3C2=O)cc1 (centres unmarked) [ALB-112085.] | 1.08 | –
COc1ccc(-c2cc(C(C)C(=O)O)ccc2N2Cc3ccccc3C2=O)cc1 (centres unmarked) [ALB-112086] | 1.08 | –
CC(C(=O)OC(C)(C)C)c1ccc(N2Cc3ncccc3C2=O)cc1 (centres unmarked) [ALB-112087] | 1.05 | –
CC(C(=O)OC(C)(C)C)c1ccc(N2Cc3cccc(-c4ccc(Cl)c(Cl)c4)c3C2=O)cc1 (centres unmarked) [ALB-112149] | 1.06 | –
CC(C(=O)OC(C)(C)C)c1ccc(N2Cc3cccc(-c4ccccc4)c3C2=O)cc1 (centres unmarked) [ALB-112150] | 1.1 | –
Cc1ccc(-c2cccc3c2C(=O)N(c2ccc(C(C)C(=O)OC(C)(C)C)cc2)C3)cc1 (centres unmarked) [ALB-112151] | 1.11 | –
COc1ccc(-c2cccc3c2C(=O)N(c2ccc(C(C)C(=O)OC(C)(C)C)cc2)C3)cc1 (centres unmarked) [ALB-112152] | 1.04 | –
CC(C(=O)OC(C)(C)C)c1ccc(N2Cc3cccc(-c4ccc(Cl)cc4)c3C2=O)cc1 (centres unmarked) [ALB-112153] | 1.02 | –
CC(C(=O)OC(C)(C)C)c1ccc(N2Cc3cccc(-c4cccs4)c3C2=O)cc1 (centres unmarked) [ALB-112154] | 1.11 | –
CC(C(=O)O)c1ccc(N2Cc3cccc(-c4ccccc4)c3C2=O)cc1 (centres unmarked) [ALB-112155] | 1.19 | EC50 [2]: 26.3 µM
COc1ccc(-c2cccc3c2C(=O)N(c2ccc(C(C)C(=O)O)cc2)C3)cc1 (centres unmarked) [ALB-112156] | 1.27 | –

SMILES | maximal fold induction [1] | other results
CC(C(=O)O)c1ccc(N2Cc3cccc(-c4cccnc4)c3C2=O)cc1 (centres unmarked) [ALB-112157] | 1.2 | EC50 [2]: 20.5 µM
CC(C(=O)O)c1ccc(N2Cc3cccc(-c4cccs4)c3C2=O)cc1 (centres unmarked) [ALB-112158] | 1.24 | EC50 [2]: 11.4 µM
CC(C(=O)O)c1ccc(N2Cc3ccccc3C2=O)cc1-c1ccco1 (centres unmarked) [ALB-112160] | 1.02 | –
CC(C(=O)O)c1ccc(N2Cc3ccccc3C2=O)c(-c2ccc(Cl)c(Cl)c2)c1 (centres unmarked) [ALB-112161] | 1.1 | –
CC(C(=O)OC(C)(C)C)c1ccc(N2Cc3ccccc3C2=O)c(-c2ccc(Cl)cc2)c1 (centres unmarked) [ALB-112162] | 1.03 | –
CC(C(=O)OC(C)(C)C)c1ccc(N2Cc3ccccc3C2=O)c(-c2ccccc2)c1 (centres unmarked) [ALB-112163] | 1.03 | –
CC(C(=O)O)c1ccc(N2Cc3ccccc3C2=O)c(-c2ccc(Cl)cc2)c1 (centres unmarked) [ALB-112164] | 1.05 | –
CC(C(=O)O)c1ccc(N2Cc3ccccc3C2=O)c(-c2ccccc2)c1 (centres unmarked) [ALB-112165] | 1.15 | –
CC(C(=O)OC(C)(C)C)c1ccc(N2Cc3ccc(Nc4ccc(Cl)cc4)cc3C2=O)cc1 (centres unmarked) [ALB-112166] | 1.04 | –
CC(C(=O)OC(C)(C)C)c1ccc(N2Cc3ccc(N(C)C(=O)c4ccc(Cl)cc4)cc3C2=O)cc1 (centres unmarked) [ALB-112167] | 1.01 | –
CC(C(=O)OC(C)(C)C)c1ccc(N2Cc3ccc(Nc4ccccc4)cc3C2=O)cc1 (centres unmarked) [ALB-112168] | 1.15 | –
CC(C(=O)OC(C)(C)C)c1ccc(N2Cc3ccc(N(C)C(=O)c4ccccc4)cc3C2=O)cc1 (centres unmarked) [ALB-112169] | 1.07 | –
CNc1ccc2c(c1)C(=O)N(c1ccc(C(C)C(=O)OC(C)(C)C)cc1)C2 (centres unmarked) [ALB-112170] | 1.27 | EC50 [2]: 1.04 µM
CC(C(=O)OC(C)(C)C)c1ccc(N2Cc3ccccc3C2=O)c(-c2cccnc2)c1 (centres unmarked) [ALB-112172] | 1.04 | –
CC(C(=O)OC(C)(C)C)c1ccc(N2Cc3ccccc3C2=O)cc1-c1cccnc1 (centres unmarked) [ALB-112173] | 1 | –
Cc1ccc(-c2cccc3c2C(=O)N(c2ccc(C(C)C(=O)O)cc2)C3)cc1 (centres unmarked) [ALB-112174] | 1.18 | –
CC(C(=O)O)c1ccc(N2Cc3cccc(-c4ccc(Cl)cc4)c3C2=O)cc1 (centres unmarked) [ALB-112175] | 1.37 | EC50 [2]: 16.9 µM
CC(C(=O)OC(C)(C)C)c1ccc(N2Cc3c(cccc3-c3ccc(Cl)c(Cl)c3)C2=O)cc1 (centres unmarked) [ALB-112186] | 1.08 | –
CC(C(=O)OC(C)(C)C)c1ccc(N2Cc3c(cccc3-c3ccccc3)C2=O)cc1 (centres unmarked) [ALB-112187] | 1.07 | –
Cc1ccc(-c2cccc3c2CN(c2ccc(C(C)C(=O)OC(C)(C)C)cc2)C3=O)cc1 (centres unmarked) [ALB-112188] | 1.08 | –
CC(C(=O)OC(C)(C)C)c1ccc(N2Cc3c(cccc3-c3ccc(Cl)cc3)C2=O)cc1 (centres unmarked) [ALB-112190] | 1.1 | –
CC(C(=O)OC(C)(C)C)c1ccc(N2Cc3c(cccc3-c3cccs3)C2=O)cc1 (centres unmarked) [ALB-112191] | 1.12 | –
